Experimental findings from patent US20260028337A1, “COMPOUND FOR INHIBITING IRAK4 ACTIVITY AND USE THEREOF” (SHENZHEN ZHONGGE BIOLOGICAL TECHNOLOGY CO., LTD., priority 2022, published 2026) are described below.

Structures can show the parent of a compound that is named as a salt. A value given as a limit tells only on which side of the number the result lay.

The target in the assay is IRAK4 kinase (Homo sapiens (Human), UniProt Q9NWZ3). As to the kind of experiment: IRAK4 Kinase Inhibition Assay (Cisbio HTRF KinEASE-STK S1 kit). The conditions noted are these: IRAK4 kinase protein 10 nM, ATP 200 μM, STK Substrate 1-biotin 1 μM, 37° C. 2 h, read-out: IC50 (nM), IRAK4 kinase inhibitory activity. The class given is biochemical. As for the experimental part: Test Example 1. IRAK4 Kinase Inhibition Assay
IRAK4 kinase, sequence (Q9NWZ3 whole entry): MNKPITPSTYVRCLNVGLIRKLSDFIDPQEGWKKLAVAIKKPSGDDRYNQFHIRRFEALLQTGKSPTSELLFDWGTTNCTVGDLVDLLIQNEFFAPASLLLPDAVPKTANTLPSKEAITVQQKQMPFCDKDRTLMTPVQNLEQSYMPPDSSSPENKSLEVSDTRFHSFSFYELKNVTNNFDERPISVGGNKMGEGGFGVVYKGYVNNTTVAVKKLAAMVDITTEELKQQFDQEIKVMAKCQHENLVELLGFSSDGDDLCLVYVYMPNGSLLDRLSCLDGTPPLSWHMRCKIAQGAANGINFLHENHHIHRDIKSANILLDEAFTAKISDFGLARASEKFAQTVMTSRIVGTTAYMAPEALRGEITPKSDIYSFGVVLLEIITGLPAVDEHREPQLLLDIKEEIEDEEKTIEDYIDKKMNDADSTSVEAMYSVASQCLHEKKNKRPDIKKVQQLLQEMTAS
In this assay, Cisbio HTRF KinEASE-STK SI kit (62S 1 PEB) was used, in which assay/detection buffer, STK Substrate 1-biotin, Streptavidin-XL665, STK Antibody-Cryptate were contained.
After adding compound/DMSO to a 384-well plate (PerkinElmer 6008280) using Echo 665, 5 μL of 2-fold reaction concentration of IRAK4 kinase protein (final concentration: 10 nM) dissolved with assay buffer [1 volume of 5× kinase buffer+20 mM magnesium chloride (Sigma) solution+1 mM DTT (Alfa Aesar) solution+4 volumes deionized water] was added, followed by sealing the shallow well plate, shaking and then centrifuging at 1000 rpm for 1 min, and incubating at room temperature for 5 min; then 5 μL of 2-fold reaction concentration of a 1:1 mixture of STK Substrate 1-biotin (final concentration: 1 μM) and ATP (Sigma A1852) (final concentration: 200 μM) formulated with assay buffer was added, followed by sealing the shallow well plate, shaking and then centrifuging at 1000 rpm for 1 min, and incubating at 37° C. for 2 h, and then 10 μL of a 1:1 mixture of Streptavidin-XL665 (final concentration: 62.5 nM) and STK-antibody-cryptate dissolved with detection buffer was added, followed by sealing the shallow well plate, shaking and then centrifuging at 1000 rpm for 1 min, and incubating at room temperature for 1 h, and thereafter reading the value at the wavelength of 620 nm/665 nm using a microplate reader. The data were analyzed using Prism 9.3 software, and the IC50 value of IRAK4 kinase inhibition was fitted using a four parameter Logistic equation.
Take `FC(F)c1nn(C2CCCCC2)cc1-n1cc(-c2cnn3ccc(N4C[C@H]5C[C@@H]4CO5)nc23)nn1` [Compound 1A, (1R,4R)-5-(3-(1-(1-cyclohexyl-3-(difluoromethyl)-1H-pyrazol-4-yl)-1H-1,2,3-triazol-4-yl]pyrazolo[1,5-a]pyrimidin-5-yl)-2-oxa-5-azabicyclo[2.2.1]heptane]: the IC50 fell in the range of 100 to 1000 nM. In the case of `N#Cc1cnc2c(-c3cn(-c4cn(C5CCCCC5)nc4C(F)F)nn3)cnn2c1` [Compound 3A, 3-(1-(1-cyclohexyl-3-(difluoromethyl)-1H-pyrazol-4-yl)-1H-1,2,3-triazol-4-yl) pyrazolo[1,5-a]pyrimidine-6-carbonitrile], the IC50 lay within 100 to 1000 nM. On to `FC(F)c1nn(C2CCCCC2)cc1-n1cc(-c2cnn3ccc(N4CCOCC4)nc23)nn1` [Compound 4A, 4-(3-(1-(1-cyclohexyl-3-(difluoromethyl)-1H-pyrazol-4-yl)-1H-1,2,3-triazol-4-yl)pyrazolo[1,5-a]pyrimidin-5-yl) morpholine], for which the IC50 was < 100 nM. Regarding `N#Cc1cnc2c(ccn2-c2cn(-c3cn(C4CCCCC4)nc3C(F)F)nn2)c1` [Compound 43A, 1-(1-(1-cyclohexyl-3-(difluoromethyl)-1H-pyrazol-4-yl)-1H-1,2,3-triazol-4-yl]-1H-pyrrolo[2,3-b]pyridine-5-carbonitrile], the IC50 lay in the range of 1000 to 5000 nM. As for `FC(F)c1nn(C2CCCCC2)cc1-n1cc(-n2ccc3ccc(N4CCOCC4)nc32)nn1` [Compound 45A], the concentration for half-maximal inhibition (IC50) lay within 1000 to 5000 nM. With `Cn1cc(-n2cc(-c3cnn4ccc(N5C[C@H]6C[C@@H]5CO6)nc34)nn2)c(C(F)F)n1` [Compound 46A] the figure was 1000 to 5000 nM; with `FC(F)c1nn(C2CCCCC2)cc1-n1cc(-c2cnn3cccnc23)nn1` [Compound 56A, 3-(1-(1-cyclohexyl-3-(difluoromethyl)-1H-pyrazol-4-yl)-1H-1,2,3-triazol-4-yl]pyrazolo[1,5-a]pyrimidine], 1000 to 5000 nM. In the case of `NC(=O)c1cnn2c(-c3cn(-c4cn(C5CCCCC5)nc4C(F)F)nn3)ccc2c1` [Compound 60A, 7-(1-(1-cyclohexyl-3-(difluoromethyl)-1H-pyrazol-4-yl)-1H-1,2,3-triazol-4-yl) pyrrolo[1,2-b]pyridazine-3-formamide], the concentration for half-maximal inhibition (IC50) is < 100 nM.

`O=C(O)c1cnn2c(-c3cn(-c4cn(C5CCCCC5)nc4C(F)F)nn3)ccc2c1` [Compound 61A, 7-(1-(1-cyclohexyl-3-(difluoromethyl)-1H-pyrazol-4-yl)-1H-1,2,3-triazol-4-yl]pyrrolo[1,2-b]pyridazine-3-carboxylic acid]: the IC50 was in the range of 100 to 1000 nM. Consider `O=C(c1cnn2c(-c3cn(-c4cn(C5CCCCC5)nc4C(F)F)nn3)ccc2c1)N1CCNCC1` [Compound 64A, (7-(1-(1-cyclohexyl-3-(difluoromethyl)-1H-pyrazol-4-yl)-1H-1,2,3-triazol-4-yl]pyrrolo[1,2-b]pyridazin-3-yl) (piperazin-1-yl) methanone], for which the IC50 was 1000 to 5000 nM. In the case of `NC(=O)c1cnc2c(ccn2-c2cn(-c3cn(C4CCCCC4)nc3C(F)F)nn2)c1` [Compound 65A, 1-(1-(1-cyclohexyl-3-(difluoromethyl)-1H-pyrazol-4-yl)-1H-1,2,3-triazol-4-yl)-1H-pyrrolo[2,3-b]pyridine-5-formamide], the IC50 was 100 to 1000 nM. Turning to `O=C(O)c1cnc2c(ccn2-c2cn(-c3cn(C4CCCCC4)nc3C(F)F)nn2)c1` [Compound 66A, 1-(1-(1-cyclohexyl-3-(difluoromethyl)-1H-pyrazol-4-yl)-1H-1,2,3-triazol-4-yl)-1H-pyrrolo[2,3-b]pyridine-5-carboxylic acid], the 50% inhibitory concentration (IC50) lay within 1000 to 5000 nM. With `O=C(NC1CCNC1)c1cnn2c(-c3cn(-c4cn(C5CCCCC5)nc4C(F)F)nn3)ccc2c1` (centres unmarked) [Compound 67A, 7-(1-(1-cyclohexyl-3-(difluoromethyl)-1H-pyrazol-4-yl)-1H-1,2,3-triazol-4-yl]-N-(pyrrolidin-3-yl)pyrrolo[1,2-b]pyridazine-3-formamide], the IC50 is > 5000 nM. In the case of `O=C(NC1CNCC1(F)F)c1cnn2c(-c3cn(-c4cn(C5CCCCC5)nc4C(F)F)nn3)ccc2c1` (centres unmarked) [Compound 68A, 7-(1-(1-cyclohexyl-3-(difluoromethyl)-1H-pyrazol-4-yl)-1H-1,2,3-triazol-4-yl]-N-(4,4-difluoropyrrolidin-3-yl)pyrrolo[1,2-b]pyridazine-3-formamide], the IC50 lay within 1000 to 5000 nM. The figure for `FC(F)c1nn(C2CCNCC2)cc1-n1cc(-c2cnn3ccc(N4CCOCC4)nc23)nn1` [Compound 69A, 4-(3-(1-(3-(difluoromethyl)-1-(piperidin-4-yl)-1H-pyrazol-4-yl)-1,2,3-triazol-4-yl]pyrazolo[1,5-a]pyrimidin-5-yl) morpholine] is 100 to 1000 nM; for `C[C@@H]1C[C@@H](n2cc(-n3cc(-c4cnn5ccc(N6CCOCC6)nc45)nn3)c(C(F)F)n2)CCN1` [Compound 72A] it is < 100 nM. Turning to `C[C@@H]1C[C@H](n2cc(-n3cc(-c4cnn5ccc(N6CCOCC6)nc45)nn3)c(C(F)F)n2)CCN1` [Compound 73A], the IC50 is 100 to 1000 nM.

For `C[C@H]1CC(n2cc(-n3cc(-c4cnn5ccc(N6CCOCC6)nc45)nn3)c(C(F)F)n2)CCN1` (stereo partly drawn) [Compound 79A, 4-(3-(1-(3-(difluoromethyl)-1-((2S)-2-methylpiperidin-4-yl)-1H-pyrazol-4-yl)-1,2,3-triazol-4-yl)pyrazolo[1,5-a]pyrimidin-5-yl) morpholine], the half-maximal inhibitory concentration (IC50) fell in the range of 100 to 1000 nM.

`C[C@@H]1CC(n2cc(-n3cc(-c4cnn5ccc(N6CCOCC6)nc45)nn3)c(C(F)F)n2)CCN1` (stereo partly drawn) [Compound 80A, 4-(3-(3-difluoromethyl)-1-(2R)-2-methylpiperidin-4-yl)-1H-pyrazol-4-yl)-1H-1,2,3-triazol-4-yl)pyrazolo[1,5-a]pyrimidin-5-yl) morpholine hydrochloride]: the IC50 lay within 100 to 1000 nM. `C[C@H]1COCCN1c1ccn2ncc(-c3cn(-c4cn(C5CCCCC5)nc4C(F)F)nn3)c2n1` [Compound 82A, (S)-4-(3-(1-(1-cyclohexyl-3-(difluoromethyl)-1H-pyrazol-4-yl)-1H-1,2,3-triazol-4-yl]pyrazolo[1,5-a]pyrimidin-5-yl)-3-methylmorpholine]: the IC50 is 100 to 1000 nM. As to `C[C@H]1CN(c2ccn3ncc(-c4cn(-c5cn(C6CCCCC6)nc5C(F)F)nn4)c3n2)CCO1` [Compound 83A, (2S)-4-(3-{1-[1-cyclohexyl-3-(difluoromethyl)-1H-pyrazol-4-yl]-1H-1,2,3-triazol-4-yl}pyrazolo[1,5-a]pyrimidin-5-yl)-2-methylmorpholine], the IC50 is 100 to 1000 nM. With `NC(=O)c1cnn2c(-c3cn(-c4cn(C5CCNCC5)nc4C(F)F)nn3)ccc2c1` [Compound 84A, 7-(1-(3-(difluoromethyl)-1-(piperidin-4-yl)-1H-pyrazol-4-yl)-1H-1,2,3-triazol-4-yl)pyrrolo[1,2-b]pyridazine-3-formamide] the figure was 100 to 1000 nM.

As to `CC1(C)CC(n2cc(-n3cc(-c4cnn5ccc(N6CCOCC6)nc45)nn3)c(C(F)F)n2)CCN1` (centres unmarked) [Compound 85A, 4-(3-(1-(3-(difluoromethyl)-1-(2,2-dimethylpiperidin-4-yl)-1H-pyrazol-4-yl)-1,2,3-triazol-4-yl]pyrazolo[1,5-a]pyrimidin-5-yl) morpholine], the concentration for half-maximal inhibition (IC50) was < 100 nM.
